Assays:
Kuming mice [1] = settings: mouse, in vivo
Kuming mice [2] = format: in vivo, mouse; settings: n = 8
female Kuming mice = settings: mouse, in vivo

How did the “Increase in paw width” value (Kuming mice [1]) turn out when `CC(C(O)c1ccc(O)cc1)N1CCC(Cc2ccccc2)CC1` (centres unmarked) [ifenprodil, reference compound] was run?
The value was 1.10 ± 0.05 mm.

And the “Injected paw width, after formalin injection” value (Kuming mice [1])?
Its value is 2.70 ± 0.04 mm.

And the “Injected paw width, before formalin injection” value (Kuming mice [1])?
The value was 1.59 ± 0.04 mm.

And the “first phase response of the formalin test (in words)” value (Kuming mice [2])?
Its value is “without effect in both phases”.

What about the “second phase response of the formalin test (in words)” value (Kuming mice [2]) of the same molecule?
The value was “without effect in both phases”.

And the “Paw withdrawal latency after administration, 30 min” value (female Kuming mice)?
The value was 11.1 ± 3.7 s.

What about the “Paw withdrawal latency after administration, 90 min” value (female Kuming mice) of the same molecule?
Its value is 11.1 ± 4.6 s.

And the “Paw withdrawal latency after administration, 150 min” value (female Kuming mice)?
The value was 11.2 ± 3.0 s.

And the “Paw withdrawal latency after administration, 240 min” value (female Kuming mice)?
The value was 12.8 ± 3.0 s.

And the “Paw withdrawal latency before administration” value (female Kuming mice)?
Its value is 10.8 ± 2.4 s.

What about the “antinociception in the hot-plate test (in words)” value (female Kuming mice) of the same molecule?
The value was “had no effect”.
